According to patent EP0308189B1, “Skin cleansing toilet bar with low moisture content” (THE PROCTER & GAMBLE COMPANY, priority 1987, dated 1989):

System: skin epidermis

Cocoyl Isethionate
Relative Skin Barrier Penetration Value: 40
Total mg Water Penetrating the Skin in 24 Hours: 60.3 ± 17.7 mg
